Patent US20110136766A1, “AURORA KINASE INHIBITORS” (Vitae Pharmaceuticals, Inc., priority 2008, published 2011)
pIC50: −log10 of the molar value. Where two headings read alike, the source gives them in different places.

How the values were obtained:
SW620 = experiment: CellTiter-Glo cell viability assay, SW620; assay type: cell-based; conditions: Homo sapiens, read-out: SW620 IC50
Description: (§1) The CellTiter-Glo® Luminescent Cell Viability Assay is a homogeneous method of determining the number of viable cells in culture based on quantitation of the ATP present, which signals the presence of metabolically active cells. The homogeneous assay procedure involves addition of a single reagent directly to cells cultured in serum-supplemented medium. The homogeneous format results in cell lysis and generation of a luminescent signal proportional to the amount of ATP present. The CellTiter-Glo® Assay relies on the properties of a proprietary thermostable luciferase (Ultra-Glo. Recombinant Luciferase), which generates a stable glow-type Luminescent signal. The half-life of the luminescent signal resulting from this reaction is greater than five hours. This extended half-life eliminates the need for reagent injectors and provides flexibility for continuous or batch-mode processing of multiple plates. The unique homogeneous format reduces pipetting errors that may be introduced during the multiple steps required by other ATP-measurement methods.
(§2) 96 Well cell culture plates were seeded with 10^3 mammalian cells (Colo205, HL-60, SW620, HCT116, MCF-7 and MV-411) in 100 μl culture medium. The cells were incubated overnight prior to initiating the assay. Control wells were prepared on a plate containing medium only to obtain a value for background luminescence.
(§3) Compounds to be tested were added to experimental wells and incubated for 72 hrs (Colo205, HL-60, MV-411), 168 hrs (HCT116, SW620) or 240 hrs (MCF-7). Wells were also set up to as vehicle controls with the addition of 0.1% DMSO. At the end of the incubation period, the plates were equilibrated to room temperature for approximately 30 minutes.
(§4) Lyophilized CellTiter-Glo® Substrate and the CellTiter-Glo® Buffer were warmed to room temperature. The CellTiter-Glo® Buffer was mixed with the CellTiter-Glo® Substrate to reconstitute the lyophilized enzyme/substrate mixture. This forms the CellTiter-Glo® Reagent. The contents were mixed by gently vortexing, swirling or by inverting the contents to obtain a homogeneous solution. 100 μl of CellTiter-Glo® Reagent was added to the cell culture medium present in each well. The contents were mixed for 2 minutes on an orbital shaker to induce cell lysis. The plates were allowed to incubate at room temperature for 10 minutes to stabilize luminescent signal. The contents of the 96 well cell culture plate were then transferred to a white 96 well Optiplate (Perkin Elmer). The luminescence was recorded on Wallac 1420 VICTOR^2 V Multilabel Platereader (An integration time of 0.25-1 second per well).
(§5) 10 mM DMSO stock Compounds were serially diluted threefold in DMSO. Subsequent dilutions made into cell culture media prior to addition to cells to maintain the DMSO concentration at or below 0.1% to avoid cell toxicity.
(§6) The IC50s in Table 2 are the concentration at which 50% growth inhibition relative to control occurs.

HCT116 = experiment: CellTiter-Glo cell viability assay, HCT116; assay type: cell-based; conditions: Homo sapiens, read-out: HCT116 IC50
Description: as §1, §2, §3, §4, §5, §6

Colo205 = experiment: CellTiter-Glo cell viability assay, Colo205; assay type: cell-based; conditions: Homo sapiens, read-out: Colo205 IC50
Description: as §1, §2, §3, §4, §5, §6

MV-411 = experiment: CellTiter-Glo cell viability assay, MV-411; assay type: cell-based; conditions: Homo sapiens, read-out: MV-411 IC50
Description: as §1, §2, §3, §4, §5, §6

HL-60 = experiment: CellTiter-Glo cell viability assay, HL-60; assay type: cell-based; conditions: Homo sapiens, read-out: HL-60 IC50
Description: as §1, §2, §3, §4, §5, §6

MCF-7 = experiment: CellTiter-Glo cell viability assay, MCF-7; assay type: cell-based; conditions: Homo sapiens, read-out: MCF-7 IC50
Description: as §1, §2, §3, §4, §5, §6

[1] = target: T1, full-length human Aurora A (Homo sapiens, UniProt O14965); experiment: Aurora A phosphocellulose filter binding kinase activity assay; assay type: biochemical; conditions: 11 nM Aurora A, 10 μM ATP, 50 μM Kemptide, 45 min; read-out: Aur-A IC50
T1 construct: The full-length human Aurora A carrying His6 tag at the N-terminus; His6 (N); purchased Invitrogen, Carlsbad, Calif
T1 sequence (O14965 1-403): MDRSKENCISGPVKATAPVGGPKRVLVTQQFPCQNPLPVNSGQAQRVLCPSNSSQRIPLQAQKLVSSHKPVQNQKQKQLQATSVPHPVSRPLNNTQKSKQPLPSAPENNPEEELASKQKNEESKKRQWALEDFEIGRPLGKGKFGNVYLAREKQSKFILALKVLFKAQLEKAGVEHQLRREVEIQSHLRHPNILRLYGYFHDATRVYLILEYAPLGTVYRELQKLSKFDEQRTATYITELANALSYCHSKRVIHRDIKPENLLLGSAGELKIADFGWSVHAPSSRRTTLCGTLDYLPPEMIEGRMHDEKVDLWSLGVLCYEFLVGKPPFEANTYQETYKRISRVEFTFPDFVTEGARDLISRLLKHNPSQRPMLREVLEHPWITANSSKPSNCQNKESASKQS
Experimental: (§7) Kinase activity of Aurora kinases was measured by phosphocellulose filter binding assay. The full-length human Aurora A carrying His6 tag at the N-terminus (Invitrogen, Carlsbad, Calif.) and the full-length human Aurora B (N-terminal GST fusion) co-expressed and co-purified with the His6-INCENP INBOX, aminoacids 803-918 (Carna BioSciences, Japan) were used as the enzyme in the assays. Tested compounds were diluted in DMSO and pre-incubated with the enzyme and ATP/Mg^2+ mixture for at least 10 minutes. The reaction was started by addition of the Kemptide peptide substrate (LRRASLG) and allowed to proceed for 45 min at room temperature. Each reaction in a final volume of 40 μl contained 50 μM Kemptide, 10 μM [γ-^33P]ATP (1 Ci/mmol) and either 11 nM Aurora A or 1.5 nM Aurora B/INCENP complex in the buffer containing 10 mM MgCl2, 5% DMSO, 20 mM MOPS, pH 7.2, 25 mM β-glycerol phosphate, 5 mM EGTA, 1 mM Na3VO4 and either 0.1 mg/ml of BSA and 1 mM DTT for Aurora A or 0.01% Triton-X100 and 2 mM DTT for Aurora B. The reaction was stopped with 25 μl of 5% H3PO4, and 45 μl of the mixture was transferred into a MultiScreen-PH filterplate (Millipore) pre-washed with 0.85% H3PO4. The filterplate was washed 4 times with 200 μl of 0.85% H3PO4 on a vacuum manifold. Scintillation fluid (50 μl of Ultima Gold™ LLT, PerkinElmer, Waltham, Mass.) was added to each well, and after 1-hr incubation at room temperature the plates were counted on MicroBeta (PerkinElmer, Waltham, Mass.) plate reader. […] Percent inhibition values were calculated based on the counts of the positive and negative controls, and these values were regressed against inhibitor concentration and fit into a four parameter model. From this fit the IC50 values (the inhibitor concentration at which 50% inhibition occurs) were derived as the inflection point on the semi-logarithm inhibition curve.

[2] = target: T2, full-length human Aurora B/INCENP complex (Homo sapiens, UniProt Q96GD4); experiment: Aurora B phosphocellulose filter binding kinase activity assay; assay type: biochemical; conditions: 1.5 nM Aurora B/INCENP complex, 10 μM ATP, 50 μM Kemptide, 45 min; read-out: Aur-B IC50
T2 construct: the full-length human Aurora B (N-terminal GST fusion); GST (N); purchased Carna BioSciences, Japan
Experimental: as §7

[3] = HCT-116, Colorectal cancer, 168 hrs, 50% growth inhibition relative to control
[4] = COLO 205, Colorectal cancer, 72 hrs, 50% growth inhibition relative to control

T2 sequence (Q96GD4 whole entry, the tested form may be a part): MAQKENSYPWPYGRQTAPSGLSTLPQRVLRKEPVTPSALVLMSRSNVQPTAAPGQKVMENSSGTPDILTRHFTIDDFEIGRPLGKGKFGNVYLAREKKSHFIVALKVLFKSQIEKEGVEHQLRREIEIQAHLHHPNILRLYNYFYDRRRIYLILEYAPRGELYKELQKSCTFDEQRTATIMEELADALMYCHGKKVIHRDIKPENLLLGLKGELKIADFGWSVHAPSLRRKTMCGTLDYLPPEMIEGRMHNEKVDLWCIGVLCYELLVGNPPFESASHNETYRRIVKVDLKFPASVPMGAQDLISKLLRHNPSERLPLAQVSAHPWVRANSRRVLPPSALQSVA
T2 sequence (Q9NQS7 803-918 partner limits assumed): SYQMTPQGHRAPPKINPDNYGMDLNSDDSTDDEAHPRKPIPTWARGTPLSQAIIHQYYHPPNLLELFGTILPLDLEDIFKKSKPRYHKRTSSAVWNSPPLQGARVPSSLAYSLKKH

SMILES	pIC50 [1]	pIC50 [2]	pIC50 (HCT116; [3])	pIC50 (Colo205; [4])	further results
CCN(CCO)CCCOc1ccc2c(Nc3cc(CC(=O)Nc4cccc(F)c4)[nH]n3)ncnc2c1 [AZD1152HQPA, reference compound]	–	–	–	–	pIC50 (SW620; SW-620, 168 h): 7.68; pIC50 (HCT116; HCT-116, 168 h): 7.84; pIC50 (Colo205; COLO 205, 72 h): 7.64; pIC50 (MV-411; MV4-11, 72 h): 7.78; pIC50 (HL-60; HL-60, 72 h): 8.15; pIC50 (MCF-7; MCF7, 240 h): 7.22
CN1CCN(S(=O)(=O)c2ccc(-c3ccc4c(Nc5cc(CC(=O)Nc6cccc(F)c6)[nH]n5)ncnc4c3)cc2)CC1 [Compound 7, N-(3-fluorophenyl)-2-(3-(7-(4-(4-methylpiperazin-1-ylsulfonyl)phenyl)quinazolin-4-ylamino)-1H-pyrazol-5-yl)acetamide]	7.86	9.03	–	–	–
O=C(Cc1cc(Nc2ncnc3ccccc23)n[nH]1)Nc1cccc(F)c1 [Compound 8, N-(3-fluorophenyl)-2-(3-(quinazolin-4-ylamino)-1H-pyrazol-5-yl)acetamide]	5.61	7.83	–	–	–
O=C(Cc1cc(Nc2ncnc3cc(-c4ccc(C(=O)N5CCN(CC6CC6)CC5)cc4)ccc23)n[nH]1)Nc1cccc(F)c1 [Compound 9, 2-(3-(7-(4-(4-(Cyclopropylmethyl)piperazine-1-carbonyl)phenyl)quinazolin-4-ylamino)-1H-pyrazol-5-yl)-N-(3-fluorophenyl)acetamide]	8.02	8.73	8.36	8.01	–
O=C(Cc1cc(Nc2ncnc3cc(-c4ccc(C(=O)N5CCN(C6CC6)CC5)cc4)ccc23)n[nH]1)Nc1cccc(F)c1 [Compound 10, 2-(3-(7-(4-(4-Cyclopropylpiperazine-1-carbonyl)phenyl)quinazolin-4-ylamino)-1H-pyrazol-5-yl)-N-(3-fluorophenyl)acetamide]	8.34	8.91	8.80	8.27	–
C[C@@H]1CN(C(=O)c2ccc(-c3ccc4c(Nc5cc(CC(=O)Nc6cccc(F)c6)[nH]n5)ncnc4c3)cc2)C[C@H](C)N1 [Compound 11, 2-(3-(7-(4-((3S,5R)-3,5-dimethylpiperazine-1-carbonyl)phenyl)quinazolin-4-ylamino)-1H-pyrazol-5-yl)-N-(3-fluorophenyl)acetamide]	8.19	8.86	8.79	8.54	–
O=C(Cc1cc(Nc2ncnc3cc(-c4ccc(C(=O)N5CCN(CCF)CC5)cc4)ccc23)n[nH]1)Nc1cccc(F)c1 [Compound 12, 2-(3-(7-(4-(4-(2-Fluoroethyl)piperazine-1-carbonyl)phenyl)quinazolin-4-ylamino)-1H-pyrazol-5-yl)-N-(3-fluorophenyl)acetamide]	8.54	9.13	8.40	8.11	–
O=C(Cc1cc(Nc2ncnc3cc(-c4ccc(C(=O)N5CCN(CCOP(=O)(O)O)CC5)cc4)ccc23)n[nH]1)Nc1cccc(F)c1 [Compound 13, 2-(4-(4-(4-(5-(2-(3-Fluorophenylamino)-2-oxoethyl)-1H-pyrazol-3-ylamino)quinazolin-7-yl)benzoyl)piperazin-1-yl)ethyl dihydrogen phosphate]	8.72	9.47	8.19	8.03	–
O=C(Cc1cc(Nc2ncnc3cc(-c4ccc(C(=O)N5CCN(CCO)CC5)cc4)ccc23)n[nH]1)Nc1cc(F)cc(F)c1 [Compound 14, N-(3,5-Difluorophenyl)-2-(3-(7-(4-(4-(2-hydroxyethyl)piperazine-1-carbonyl)phenyl)quinazolin-4-ylamino)-1H-pyrazol-5-yl)acetamide]	8.64	9.08	8.24	8.09	–
O=C(Cc1cc(Nc2ncnc3cc(-c4ccc(C(=O)N5CCN(CCO)CC5)cc4)ccc23)n[nH]1)Nc1cccc(F)c1F [Compound 15, N-(2,3-Difluorophenyl)-2-(3-(7-(4-(4-(2-hydroxyethyl)piperazine-1-carbonyl)phenyl)quinazolin-4-ylamino)-1H-pyrazol-5-yl)acetamide]	8.72	9.20	8.77	8.51	–
CC(=O)O[C@H]1C(=O)[C@@]2(C)[C@H]([C@H](OC(=O)c3ccccc3)[C@]3(O)C[C@H](OC(=O)[C@H](O)[C@@H](NC(=O)c4ccccc4)c4ccccc4)C(C)=C1C3(C)C)[C@]1(OC(C)=O)CO[C@@H]1C[C@@H]2O [Taxol, reference compound]	–	–	8.69	8.60	pIC50 (SW620; SW-620, Colorectal cancer, 168 hrs, 50% growth inhibition relative to control): 8.31; pIC50 (MV-411; MV4-11, Leukemia, 72 hrs, 50% growth inhibition relative to control): 8.21; pIC50 (HL-60; HL-60, Leukemia, 72 hrs, 50% growth inhibition relative to control): 8.67; pIC50 (MCF-7; MCF7, Breast Cancer, 240 hrs, 50% growth inhibition relative to control): 9.24
Cc1cc(Nc2cc(N3CCN(C)CC3)nc(Sc3ccc(NC(=O)C4CC4)cc3)n2)n[nH]1 [VX-680, reference compound]	–	–	–	–	pIC50 (SW620; SW-620, 168 h): 7.66; pIC50 (HCT116; HCT-116, 168 h): 7.75; pIC50 (Colo205; COLO 205, 72 h): 7.52; pIC50 (MV-411; MV4-11, 72 h): 7.10; pIC50 (HL-60; HL-60, 72 h): 7.86; pIC50 (MCF-7; MCF7, 240 h): 7.51
